Experimental data from ChEMBL document CHEMBL3044878, “The interference between metformin treatment and TSH level in euthyroid type 2 diabetic patients” (Med Chem Res, 2013).
Activity calls are given as the source filed them.

How the values were obtained:
Assay type in all cases: functional, organism-based
Homo sapiens [1] = species: Homo sapiens; experiment: Effect on TSH level in diabetic non-obese pateint by ELISA relative to untreated healthy control
Homo sapiens [2] = species: Homo sapiens; experiment: Effect on FT4 level in diabetic obese pateint by ELISA relative to untreated healthy control
Homo sapiens [3] = species: Homo sapiens; experiment: Effect on FT4 level in diabetic non-obese pateint by ELISA relative to untreated healthy control
Homo sapiens [4] = species: Homo sapiens; experiment: Decrease in TSH level in diabetic non-obese pateint by ELISA relative to untreated obese insulin-resistant control
Homo sapiens [5] = species: Homo sapiens; experiment: Effect on TSH level in diabetic obese pateint by ELISA relative to untreated healthy control
Homo sapiens [6] = species: Homo sapiens; experiment: Effect on FT4 level in diabetic obese pateint by ELISA relative to untreated obese insulin-resistant control
Homo sapiens [7] = species: Homo sapiens; experiment: Effect on FT4 level in diabetic non-obese pateint by ELISA relative to untreated obese insulin-resistant control

Measured: Activity

CN(C)C(=N)NC(=N)N
inactive: Homo sapiens [1] | Homo sapiens [2] | Homo sapiens [3] | Homo sapiens [5] | Homo sapiens [6] | Homo sapiens [7]
active: Homo sapiens [4]
